Where two headings read alike, the source gives them in different places.
Assays:
Format in all cases: cell-based
[1] = system: rat urinary bladder (detrusor) strip; test: Rat Detrusor Strip Screen: inhibition of electrically induced isometric contractions
Procedure: Rat Detrusor Strip Screen
Male Wistar Charles River rats (Crl: WI BR) weighing 300-350 g were used.
The urinary bladder was removed and a longitudinal strip 3 mm wide was cut from the urethra to the apex of the bladder.
The strip was immediately immersed in a 20 ml bath containing Tyrode with double millimolar concentration of glucose (11.1 instead of 5.55) and with addition of sucrose (13.3 millimolar), kept at 37° C. and aerated with a mixture of O2 95% and CO2 5%.
Tyrode composition was (mM): NaCl 136.8, KCl 2.68, CaCl2 1.80, MgSO4.7H2 O 1.05, NaH2 PO4.H2 O 0.41, NaHCO3 11.9, glucose 11.1 sucrose 13.3. The strip was in direct contact with one of the two platinum electrodes placed on the top and bottom of the organ bath. Placed under an initial tension of 2 g, the strip was then allowed to relax until a baseline of about 1 g. After a 5 min equilibration period isometric contractions were induced by a GRASS S88 2 channel stimulator using the following parameters trains of pulses of 2 sec duration each every 100 sec; square wave pulse of volts (60-70); duration 0.7 ms and 30 Hz.
When the contractions became constant (60-90 min), the strips were exposed to the test compound. The isometric contractions were measured with a Basile DYl force transducer connect to Battaglia Rangoni 4 channel recorder. The results are expressed as per cent of contraction inhibition.

[2] = system: Rabbit isolated mesenteric artery; test: Rabbit isolated mesenteric artery: relaxation of contractions due to KCl; conditions: Oryctolagus cuniculus
Procedure: (2) Rabbit isolated mesenteric artery.
Mesenteric arteries (3 mm rings) were removed from male New Zealand White rabbits and mounted, at a resting tension of 1.5-2.0 g, in a 10 ml organ bath containing a Ringer solution, at 37° C., of the following composition (mM): NaCl 120.8; KCl 5.9; CaCl2 2.5; MgCl2 1.2; HEPES 5.8; glucose 11.5. The bathing solution was bubbled with a 95% oxygen and 5% carbon dioxide mixture. Each preparation was allowed 1-11/2h to equilibrate before the addition of either 30 or 90 mM KCl to contract the tissue. The ability of test compound to relax the sustained contraction due to KCL was determined by assessing the % reduction (mean± s.e.m.; 4-9 tissues) produced by varying concentrations of test compound.

[3] = system: Rat isolated portal vein; test: Rat isolated portal vein: spontaneous contractions and contractions due to added calcium; conditions: 0.25 h
Procedure: (1) Rat isolated portal vein.
Male Sprague Dawley rats (250-350) were killed by cervical dislocation. Portal veins (2-3 cm in length) were set up under 0.8-1 g tension in a 10 ml organ bath containing Krebs-Henseleit solution, at 37° C., of the following composition (mM): NaCl 118, NaHCO3 25, glucose 5, KH2 PO4 1.18, KCl 4.69, MgSO4 0.59, CaCl2.H2 O 1.87. The tissue was aerated with a 95% oxygen and 5% carbon dioxide mixture. Isometric tension was recorded using a Devices strain gauge and recorder. Each preparation was allowed 1 h to equilibrate before the addition of test compound. The ability of a compound to inhibit the contractions due to added calcium (3 mM CaCl2) was determined in tissues bathed in Krebs-Henseleit solution containing 0.05 mM CaCl2 (in order to reduce spontaneous contractions). Then percentage inhibition (mean± s.e.m.; 6-9 tissues) of the amplitude of the spontaneous contractions, and contractions due to added calcium, was determined after 15 min contact time with test compound.

Row | SMILES | Mean % inhibition ([1]; Molar Conc 1 × 10^-5) | Mean % inhibition ([1]; Molar Conc 3 × 10^-5) | further results
1 | CC1(C)Oc2ccc(C#N)cc2[C@@H](N2CCNCC2=O)[C@@H]1O (relative stereo) [Compound 5, 6-cyano-3,4-dihydro-2,2-dimethyl-trans 4-(2-oxo-1-piperazinyl)-2H-benzo[t]pyran-3-ol] | -37.2% | – | –
2 | CNC(=O)N[C@@H]1c2cc(C#N)ccc2OC(C)(C)[C@H]1O (relative stereo) [Compound 6, trans-6-cyano-3,4-dihydro-2,2-dimethyl-4-(N-methylureido)-2H-1-benzo[b]pyran-3-ol] | – | -44.2% | –
3 | CC1(C)Oc2ccc(C#N)cc2[C@@H](N2CCCC2=O)[C@@H]1O (relative stereo) [Compound 1, 6-cyano-3,4-dihydro-2,2-dimethyl-trans-4-(2-oxo-1-pyrrolidinyl)-2H-benzo[b]pyran-3-ol] | -46.4% | – | IC50 ([2]; sustained contraction due to 30 mM KCl, read-out: IC50 30 mM KCl): 510 nM; IC50 ([2]; sustained contraction due to 90 mM KCl, read-out: IC50 90 mM KCl): > 10000 nM; IC50 ([3]; amplitude of spontaneous contractions, 15 min contact time, read-out: IC50 Spontaneous (contractions)): 120 nM; IC50 ([3]; contractions due to added calcium (3 mM CaCl2) in Krebs-Henseleit with 0.05 mM CaCl2, 15 min contact time, read-out: IC50 Ca^2+ (3 mM)): 150 nM
4 | CC(=O)N[C@@H]1c2cc(C#N)ccc2OC(C)(C)[C@H]1O (relative stereo) [Compound 4, trans-4-N-acetylamino-6-cyano-3,4-dihydro-2,2-dimethyl-2H-benzo[b]pyran-3-ol] | – | -32.9% | –
5 | CC1(C)C=C(N2CCCC2=O)c2cc(C#N)ccc2O1 [Compound 2, 6-cyano-2,2-dimethyl-4-(2-oxo-1-pyrrolidinyl)-2H-1-benzopyran] | -59.7% | – | –
6 | CC1(C)Oc2ccc(C#N)cc2[C@@H](N2CCCCC2=O)[C@@H]1O (relative stereo) [Compound 3] | – | – | Mean % inhibition ([1]; Molar Conc 1 × 10^-6): -34.2%

From US4738963A, “Method for the treatment of incontinence in mammals” (Beecham Group p.l.c., priority 1985, dated 1988)
